Several values for one entry are separate records, joined by “and”; a condition that tells them apart may be missing. Equal values may be shown once. Read-outs that look alike come from different tables or passages of the source.
Experiments:
[1] = target: NDV-HN of three NDV strains (two NDV La Sota and the velogenic strain APMV-1/chicken/Egypt/13VIR-5009-2/2013) (Newcastle disease virus, UniProt P35743); experiment: biochemical
NDV La Sota [2] = experiment: microbe, parasite or virus in culture; assay type: cell-based, Newcastle disease virus; settings: for IC50: avian paramyxovirus 1, Vero, 48 h, read-out: plaque reduction assay (IC50, μM)
NDV La Sota [3] = experiment: microbe, parasite or virus in culture; assay type: cell-based, Newcastle disease virus; settings: avian paramyxovirus 1, Vero, 24 h, read-out: viral yield reduction assay 24 h (IC50, μM)
NDV La Sota [4] = experiment: microbe, parasite or virus in culture; assay type: cell-based, Newcastle disease virus; settings: avian paramyxovirus 1, Vero, read-out: Inhibition of viral binding (IC50, μM)
NDV La Sota [5] = experiment: microbe, parasite or virus in culture; assay type: cell-based, Newcastle disease virus; settings: avian paramyxovirus 1, Vero, 48 h, read-out: Inhibition of viral release (IC50, μM)
in vitro = settings: African green monkey
hPIV3-HN = settings: read-out: IC50 hPIV3-HN; cited from earlier work
La Sota Clone 30 NDV-HN = La Sota Clone 30 NDV-HN (Newcastle disease virus, UniProt P35743); assay type: biochemical
Chain of La Sota Clone 30 NDV-HN (P35743 whole entry, looked up): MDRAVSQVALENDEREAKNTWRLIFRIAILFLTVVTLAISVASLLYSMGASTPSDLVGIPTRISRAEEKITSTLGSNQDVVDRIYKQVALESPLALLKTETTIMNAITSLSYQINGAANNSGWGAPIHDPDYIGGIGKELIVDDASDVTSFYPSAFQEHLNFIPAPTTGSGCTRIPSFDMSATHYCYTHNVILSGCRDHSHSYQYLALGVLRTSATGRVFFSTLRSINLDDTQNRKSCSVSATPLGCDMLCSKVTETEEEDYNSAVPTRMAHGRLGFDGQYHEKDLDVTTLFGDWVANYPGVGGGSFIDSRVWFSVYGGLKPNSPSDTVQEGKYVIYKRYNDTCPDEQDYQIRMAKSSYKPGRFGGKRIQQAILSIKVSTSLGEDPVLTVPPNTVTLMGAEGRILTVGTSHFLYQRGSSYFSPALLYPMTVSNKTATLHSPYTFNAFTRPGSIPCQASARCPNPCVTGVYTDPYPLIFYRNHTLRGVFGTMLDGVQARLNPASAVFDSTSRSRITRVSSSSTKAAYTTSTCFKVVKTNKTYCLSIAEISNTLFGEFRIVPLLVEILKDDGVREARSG

Chain of NDV-HN of three NDV strains (two NDV La Sota and the velogenic strain APMV-1/chicken/Egypt/13VIR-5009-2/2013) (P35743 whole entry, looked up): as above

SMILES | IC50 [1] [µM] | selectivity index (CC50/IC50) (NDV La Sota [2]) | IC50 (NDV La Sota [2]) [µM] | IC50 (NDV La Sota [3]) [µM] | IC50 (NDV La Sota [4]) [µM] | IC50 (NDV La Sota [5]) [µM] | CC50 (in vitro) [µM] | IC50 (hPIV3-HN) | increase in potency versus methylsulfonamido derivative 14 (La Sota Clone 30 NDV-HN) [fold] | increase in inhibitory activity versus p-toluenesulfonamido 12 (La Sota Clone 30 NDV-HN) [fold] | times more active than FANA 5 (La Sota Clone 30 NDV-HN) [times]
CC(=O)N[C@H]1[C@H]([C@H](O)[C@H](O)CO)OC(C(=O)O)=C[C@@H]1O [Compound 1, N-acetyl-2,3-dehydro-2-deoxyneuraminic acid, reference compound] | 6.2 to 14 | >96 | 26 ± 13 | 1.6 ± 0.6 | > 100 | 15 ± 8 | > 2500 |  |  |  | 
CC(=O)N[C@H]1[C@H]([C@H](O)[C@H](O)CO)OC(C(=O)O)=C[C@@H]1N=C(N)N [Compound 2, Zanamivir, reference compound] | 23 to 70 | >83 | 30 ± 7 |  | > 100 | 29 ± 10 | > 2500 |  |  |  | 
CC(C)C(=O)N[C@H]1[C@H]([C@H](O)[C@H](O)CO)OC(C(=O)O)=C[C@@H]1N=[N+]=[N-] [Compound 4] |  |  |  |  |  |  |  | 20 µM and 21.5 µM |  |  | 
O=C(O)C1=C[C@H](O)[C@@H](NC(=O)C(F)(F)F)[C@H]([C@H](O)[C@H](O)CO)O1 [Compound 5, N-trifluoroacetyl-2,3-dehydro-2-deoxyneuraminic acid, reference compound] | 6.2 to 14 | >714 | 3.5 ± 0.9 | 0.37 ± 0.08 | > 100 | 7.7 ± 2.9 | > 2500 |  |  |  | 
[N-]=[N+]=N[C@H]1C=C(C(=O)O)O[C@@H]([C@H](O)[C@H](O)CO)[C@@H]1NC(=O)C(F)(F)F [Compound 9] | ~0.03 |  | 0.17 ± 0.06 | 0.04 ± 0.01 | 23 | 0.47 | > 2500 |  |  |  | 
[N-]=[N+]=N[C@H]1C=C(C(=O)O)O[C@@H]([C@H](O)[C@H](O)CO)[C@@H]1NC(=O)C(F)(F)C(F)(F)C(F)(F)F [Compound 10] | ~0.03 | >41,667 | 0.06 ± 0.02 | 0.04 ± 0.01 | 4 | 0.09 | > 2500 |  |  |  | 
O=C(O)C1=C[C@H](NS(=O)(=O)c2ccccc2)[C@@H](NC(=O)C(F)(F)F)[C@H]([C@H](O)[C@H](O)CO)O1 [Compound 19, 2,6-Anhydro-4-(phenylsulfonamido)-3,4,5-trideoxy-5-(2,2,2-trifluoroacetamido)-D-glycero-D-galacto-non-2-enoic Acid] |  |  |  |  |  |  |  |  | 10 |  | 
Cc1ccc(C(=O)N[C@H]2C=C(C(=O)O)O[C@@H]([C@H](O)[C@H](O)CO)[C@@H]2NC(=O)C(F)(F)F)cc1 [Compound 23, 2,6-Anhydro-4-(4-methylbenzamido)-3,4,5-trideoxy-5-(2,2,2-trifluoroacetamido)-D-glycero-D-galacto-non-2-enoic Acid] | ≤ 0.2 |  | 0.79 ± 0.57 | 0.05 ± 0.02 | 24 | 0.13 | > 2500 |  |  | 3 | 40
O=C(O)C1=C[C@H](NC(=O)C(F)(F)F)[C@@H](NC(=O)C(F)(F)F)[C@H]([C@H](O)[C@H](O)CO)O1 [Compound 24, 2,6-Anhydro-3,4,5-trideoxy-4,5-di-(2,2,2-trifluoroacetamido)-D-glycero-D-galacto-non-2-enoic Acid] | ≤ 0.2 |  | 0.08 ± 0.01 | 0.03 ± 0.01 | 15 | 0.17 | > 2500 |  |  |  | 
